Data on 19 molecules can be found in patent US9366676B2, “Fluorescent chemical compounds having high selectivity for double stranded DNA, and methods for their use” (LIFE TECHNOLOGIES CORPORATION, priority 2005, dated 2016).

Data set [1] deals with Jurkat cells. Description: Flow cytometry with induced apoptosis cells (apoptosis time course). The class given is cell-based, human. How it is done:
Live Jurkat cells were split into 13 samples and each cell split was suspended in complete RMPI/10% FBS. Samples was treated with 10 μM Camptothecin in DMSO to induce apoptosis, or treated with DMSO alone to act as a control. Treatment and control time was 1, 2, 3, 4, 5, and 6 hours, and a time zero point. The cell suspensions were then incubated at 37° C./5% CO2 for a designated time. This type of experiment is sometimes called an “apoptosis time course”. Each split was washed once in complete RPMI media/10% Fetal Bovine Serum (FBS) and resuspended at 1×10^6 cells/mL in complete RPMI media with 10% FBS. […] A SYTOX® Blue stain vs compound (24) stain plot was made and a gate was made on compound (24) stain positive and SYTOX® Blue stain negative cells to gate out dead cells, and to ensure only live cells were analyzed. Fluorescence from the SYTOX® Blue stain was collected using 405 nm excitation laser with 450/50 bandpass and compound (24) stain fluorescence was collected at 585/42 bandpass using the 488 nm excitation laser as well as collected at the same 585/42 bandpass using the 532 nm excitation laser. […] The data was further analyzed using ModFit LT Flow Cytometry Modeling Software from Verity Software House, Inc. to look at ratio of G2/G1 and the CV of G1 phase and the percent sub-G0 population (apoptotic population).
A general note: A flow cytometer gives signals particle by particle.

Data set [2] has as its system Jurkat cells (human T-lymphocyte). The data set is described as follows: Flow cytometry cell cycle staining, live Jurkat cells. The data set is classed as cell-based. Particulars: 5 μM, 37° C., 60 minutes, ModFit. As to the method: Live Jurkat cells (human T-lymphocyte) were suspended at 1×10^6 cells/ml in RPMI media with 10% Fetal Bovine Serum (FBS). 5 μM Compound (20) was added to one mL cell suspension, and incubated at 37° C. for 60 minutes protected from light. Cells were processed using a Becton Dickinson (BD) LSRII Flow Cytometer. A Forward Scatter (FS) vs Side Scatter (SS) dual parameter plot was used to gate main cell population. On gated cells, a dual-parameter plot of Fluorescence-Width vs Fluorescence-Area was used for single cell discrimination gating. Single color fluorescence was collected at 530/30 bandpass using the 488 nm excitation laser, collecting 30,000 events at flow rate of about 200 events/second. The data was further analyzed using ModFit LT Flow Cytometry Modeling Software from Verity Software House, Inc. to determine the ratio of G2/G1 and the CV of G1 phase.

Data set [3] deals with calf thymus double stranded DNA and ribosomal RNA. Description: Determination of DNA/RNA fluorescence ratios. The data set is classed as binding. The conditions noted are these: for DNA/RNA (fluorescence ratio): 65 ug/mL calf thymus dsDNA vs 65 ug/mL ribosomal RNA, 10 mM Tris, 1 mM EDTA pH 7.5, ratio of 1 = no selectivity; for ex/em: emission: emission value, second number of ex/em cell; for ex/em: excitation: excitation value, first number of ex/em cell. How it is done:
The tested compound was dissolved as a stock solution in DMSO at a concentration of about 0.1-1.0 mg/mL. The exact concentration is not critical. Three tubes are prepared, each containing the same 1-20 uL of stock solution. The first tube contained 10 mM Tris, 1 mM EDTA (pH 7.5) buffer; the second tube contained buffer and 65 ug/mL calf thymus double stranded DNA; and the third tube contained buffer and 65 ug/mL ribosomal RNA. The tubes were incubated at room temperature for 10-15 minutes with protection from light.
In some cases, it was necessary to dilute the sample to keep the fluorescence signal on-scale. In these cases, all three samples were diluted to the same degree. The ratio of the fluorescence of the compound in the presence of DNA and RNA was determined.
The following compounds were selected as representative of the inventive class of compounds. The fluorescence values in the presence of DNA and RNA were determined as described in the previous Example. […] A ratio of 1 would indicate no selectivity. Excitation and emission values are in nm

For data set [4], the system named is double stranded DNA. The conditions noted are these: cited from earlier work.
Data set [5] concerns DNA. Particulars: cited from earlier work.

Each structure is given as a SMILES string.

Regarding `CC[C@@]1(O)C(=O)OCc2c1cc1n(c2=O)Cc2cc3ccccc3nc2-1` [Camptothecin, reference compound], in data set [1] (10 μM Camptothecin in DMSO, live Jurkat, time course 0-6 hours), the “induction time at which sub-G0 population begins to show” value turned out to be 3 h.
As for `COc1cccc(OC)c1-c1ccc2c(c1)sc(C=C1C=C(N3CCN(C)CC3)N(Cc3ccccc3)c3ccccc31)[n+]2C` [Compound 20], in data set [2] (488 nm excitation, 530/30 bandpass), the G1-phase was found to be 47.08%. In data set [2], the G2-phase came out at 6.25%, the G2/G1 ratio is given as 1.83 and the S-phase is reported as 46.67%. Moreover, in data set [3], the “DNA/RNA (fluorescence ratio)” value is listed as 4, the “ex/em: emission” value is reported as 536 nm and the “ex/em: excitation” value turned out to be 510 nm.
Take `COc1cccc(OC)c1-c1ccc2c(c1)sc(C=C1C=C(SCCN(C)C)N(Cc3ccccc3)c3ccccc31)[n+]2C` [Compound 24]: in data set [1] (10 μM, 37° C., 30 minutes, live Jurkat treated with 10 μM Camptothecin, 488 nm or 532 nm excitation), the “staining of sub-G0 (apoptotic) population” value was “stains live cells for identification of a sub-G0 population in apoptotic cells which increases with time of induction”. For the same molecule, in data set [3], the “DNA/RNA (fluorescence ratio)” value stood at 4.6, the “ex/em: emission” value turned out to be 570 nm and the “ex/em: excitation” value worked out at 520 nm. Also, in data set [3] (Example 114), the excitation maximum turned out to be 520 nm. In data set [3] (Example 114 (orange)), the emission maximum turned out to be 569 nm.
For the molecule `CC(=O)Nc1ccccc1-c1ccc2c(c1)sc(C=C1C=CN(Cc3ccccc3)c3ccccc31)[n+]2C` [Compound 94], in data set [3], the “DNA/RNA (fluorescence ratio)” value stood at 2.1, the “ex/em: emission” value was 530 nm and the “ex/em: excitation” value was 513 nm.
For the molecule `C[n+]1c(C=C2C=CN(Cc3ccccc3)c3ccccc32)sc2cc(-c3cc4ccccc4s3)ccc21` [Compound 95], in data set [3], the “DNA/RNA (fluorescence ratio)” value came out at 1.9, the “ex/em: emission” value amounted to 591 nm and the “ex/em: excitation” value is 550 nm.
On the same counts, the results for `C[n+]1c(C=C2C=CN(Cc3ccccc3)c3ccccc32)sc2cc(-c3cccs3)ccc21` [Compound 96] are 8, 555 nm and 527 nm.
Regarding `C[n+]1c(C=C2C=CN(Cc3ccccc3)c3ccccc32)sc2cc(-c3cccnc3)ccc21` [Compound 97], in data set [3], the “DNA/RNA (fluorescence ratio)” value is 3.7, the “ex/em: emission” value is reported as 538 nm and the “ex/em: excitation” value is reported as 513 nm.
On the same counts, the results for `C[n+]1cccc(-c2ccc3c(c2)sc(C=C2C=CN(Cc4ccccc4)c4ccccc42)[n+]3C)c1` [Compound 99] are 1.3, 534 nm and 511 nm.
Consider `C[n+]1c(C=C2C=CN(Cc3ccccc3)c3ccccc32)sc2cc(-c3ccc(O)cc3)ccc21` [Compound 100], for which, in data set [3], the “DNA/RNA (fluorescence ratio)” value came to 8.1, the “ex/em: emission” value stood at 551 nm and the “ex/em: excitation” value is 513 nm.
For `CCCN(CCCN(C)C)C1=CC(=Cc2sc3cc(C(COC)COC)ccc3[n+]2C)c2ccccc2N1Cc1ccccc1` [Compound 101] the same measures were 3, 527 nm and 503 nm.
For `COc1cccc(OC)c1-c1ccc2c(c1)sc(C=C1C=CN(Cc3ccccc3)C(SCCCN(C)C)=C1)[n+]2C` [Compound 102] the same measures were 3.3, 515 nm and 475 nm.
For `C[n+]1c(C=CC=C2C=CN(Cc3ccccc3)c3ccccc32)sc2cc(-c3ccccc3)ccc21` [Compound 103] the same measures were 3.1, 537 nm and 507 nm.
For the molecule `CCOC(=O)CCCOc1cccc(CN2C=CC(=CC=Cc3sc4cc(-c5ccccc5)ccc4[n+]3C)c3ccccc32)c1` [Compound 104], in data set [3], the “DNA/RNA (fluorescence ratio)” value is 9, the “ex/em: emission” value is listed as 666 nm and the “ex/em: excitation” value is recorded as 652 nm.
As for `COc1cccc(OC)c1-c1ccc2c(c1)sc(/C=C1\C=C(N(C)CCCC(=O)O)N(Cc3ccccc3)c3ccccc31)[n+]2C` [Compound 109], in data set [3], the “DNA/RNA (fluorescence ratio)” value is given as 121, the “ex/em: emission” value is 525 nm and the “ex/em: excitation” value came to 496 nm.
Consider `COc1cccc(OC)c1-c1ccc2c(c1)sc(/C=C1\C=C(N(C)CCCC(=O)NCCOCCOCCOCCO)N(Cc3ccccc3)c3ccccc31)[n+]2C` [Compound 111], for which, in data set [3], the “DNA/RNA (fluorescence ratio)” value amounted to 64, the “ex/em: emission” value came to 527 nm and the “ex/em: excitation” value is reported as 497 nm.
For `CCOC(=O)CCCOc1cccc(CN2C=C/C(=C\c3sc4cc(-c5c(OC)cccc5OC)ccc4[n+]3C)c3ccccc32)c1` [Compound 112] the same measures were 191, 541 nm and 500 nm.
Take `CN(C)CCCN(CCCN(C)C)c1cc(C=C2Sc3ccccc3N2C)c2ccccc2[n+]1-c1ccccc1` [PicoGreen]: the “fluorescence enhancement upon binding to double stranded DNA” value in data set [4] is “greater than 1000 fold”.
Take `CCCN(CCCN(C)C)c1cc(/C=C2/Sc3ccccc3N2C)c2ccccc2[n+]1-c1ccccc1` [SYBR Green I]: in data set [5], the “fluorescence enhancement upon binding to DNA, relative to ethidium bromide” value is “at least 10 fold” and the fluorescence quantum yield entry is on record as “about 0.8”.
`CN1C(=Cc2cc[n+](C)c3ccccc23)Sc2ccccc21` [Thiazole orange, reference compound]: in data set [3], the “DNA/RNA (fluorescence ratio)” value turned out to be 1, the “ex/em: emission” value amounted to 530 nm and the “ex/em: excitation” value came to 510 nm.
